Read-outs that look alike come from different tables or passages of the source.
System: OCI-Ly10
Assay: growth inhibition of OCI-Ly10 (ABC subtype DLBCL cells)
Type: cell-based
Conditions: Homo sapiens
From the text: See U.S. Pat. No. 7,711,492 and Staudt et al., Nature, Vol. 463, Jan. 7, 2010, pp. 88-92, the contents of which are incorporated by reference in their entirety.

C=CC(=O)N1CCC[C@@H](n2nc(-c3ccc(Oc4ccccc4)cc3)c3c(N)ncnc32)C1 [Compound 1, 1-((R)-3-(4-amino-3-(4-phenoxyphenyl)-1H-pyrazolo[3,4-d]pyrimidin-1-yl)piperidin-1-yl)prop-2-en-1-one]
EC50 (continuous exposure, read-out: EC50 continuous exposure): 10 nM | EC50 (read-out: EC50 1 hour pulse, 1 hour pulse): 50 nM

Source: patent publication US9545407B2, “Formulations of a bruton's tyrosine kinase inhibitor” (Pharmacyclics LLC, priority 2014, dated 2017)
